Assay results taken from ChEMBL document CHEMBL1201862, “PubChem BioAssay data set” (2004).
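Assay format: 96-well plates, 48-hour exposure. GI50 is the concentration that inhibits growth by half.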 Calls of active or inactive are those of the source. No stated cut-off is given here; in the data, active = GI50 up to about 1.1 µM and inactive = higher.

Experiments:
Assay in all cases: NCI-60 cell line screen, 48 h
KM-20L2 = system: KM-20L2
RXF 393 = system: RXF 393
SW-620 = system: SW-620
SR = system: SR
M14 = system: M14
SNB-19 = system: SNB-19
SK-MEL-28 = system: SK-MEL-28
NCI-H522 = system: NCI-H522
UO-31 = system: UO-31
OVCAR-5 = system: OVCAR-5
CAKI-1 = system: CAKI-1
COLO 205 = system: COLO 205
U-251 = system: U-251
OVCAR-3 = system: OVCAR-3
DLD-1 = system: DLD-1
UACC-257 = system: UACC-257
TK-10 = system: TK-10
SK-MEL-5 = system: SK-MEL-5
SK-MEL-2 = system: SK-MEL-2
NCI-H23 = system: NCI-H23
A549 = system: A549
SF-539 = system: SF-539
A498 = system: A498
SF-295 = system: SF-295
MOLT-4 = system: MOLT-4
SNB-75 = system: SNB-75
DMS-273 = system: DMS-273
KM12 = system: KM12
786-0 = system: 786-0
LOX IMVI = system: LOX IMVI
K562 = system: K562
RXF 631 = system: RXF 631
HL-60 = system: HL-60
OVCAR-4 = system: OVCAR-4
NCI-H460 = system: NCI-H460
SN12C = system: SN12C
XF498 = system: XF498
ACHN = system: ACHN
NCI-H226 = system: NCI-H226
UACC-62 = system: UACC-62
CCRF-CEM = system: CCRF-CEM
LXFL 529 = system: LXFL 529
HT-29 = system: HT-29
IGROV-1 = system: IGROV-1
SF-268 = system: SF-268
HCC 2998 = system: HCC 2998
M19-MEL = system: M19-MEL
EKVX = system: EKVX
OVCAR-8 = system: OVCAR-8
Malme-3M = system: Malme-3M
SNB-78 = system: SNB-78
SK-OV-3 = system: SK-OV-3
HCT-116 = system: HCT-116
HOP-62 = system: HOP-62
RPMI-8226 = system: RPMI-8226
DMS-114 = system: DMS-114
HCT-15 = system: HCT-15
HOP-92 = system: HOP-92

Structure (SMILES): CCOC(=N)CC(=O)Nc1cccc(Cl)c1
- GI50 (KM-20L2): > 100 µM (inactive)
- GI50 (RXF 393): > 100 µM (inactive)
- GI50 (SW-620): > 100 µM (inactive)
- GI50 (SR): > 100 µM (inactive)
- GI50 (M14): > 100 µM (inactive)
- GI50 (SNB-19): > 100 µM (inactive)
- GI50 (SK-MEL-28): > 100 µM (inactive)
- GI50 (NCI-H522): > 100 µM (inactive)
- GI50 (UO-31): > 100 µM (inactive)
- GI50 (OVCAR-5): > 100 µM (inactive)
- GI50 (CAKI-1): > 100 µM (inactive)
- GI50 (COLO 205): > 100 µM (inactive)
- GI50 (U-251): > 100 µM (inactive)
- GI50 (OVCAR-3): > 100 µM (inactive)
- GI50 (DLD-1): > 100 µM (inactive)
- GI50 (UACC-257): > 100 µM (inactive)
- GI50 (TK-10): > 100 µM (inactive)
- GI50 (SK-MEL-5): > 100 µM (inactive)
- GI50 (SK-MEL-2): > 100 µM (inactive)
- GI50 (NCI-H23): 4.9 µM (inactive)
- GI50 (A549): > 100 µM (inactive)
- GI50 (SF-539): > 100 µM (inactive)
- GI50 (A498): > 100 µM (inactive)
- GI50 (SF-295): > 100 µM (inactive)
- GI50 (MOLT-4): > 100 µM (inactive)
- GI50 (SNB-75): > 100 µM (inactive)
- GI50 (DMS-273): > 100 µM (inactive)
- GI50 (KM12): > 100 µM (inactive)
- GI50 (786-0): > 100 µM (inactive)
- GI50 (LOX IMVI): > 100 µM (inactive)
- GI50 (K562): > 100 µM (inactive)
- GI50 (RXF 631): > 100 µM (inactive)
- GI50 (HL-60): > 100 µM (inactive)
- GI50 (OVCAR-4): > 100 µM (inactive)
- GI50 (NCI-H460): > 100 µM (inactive)
- GI50 (SN12C): 51.2 µM (inactive)
- GI50 (XF498): > 100 µM (inactive)
- GI50 (ACHN): > 100 µM (inactive)
- GI50 (NCI-H226): > 100 µM (inactive)
- GI50 (UACC-62): > 100 µM (inactive)
- GI50 (CCRF-CEM): > 100 µM (inactive)
- GI50 (LXFL 529): > 100 µM (inactive)
- GI50 (HT-29): > 100 µM (inactive)
- GI50 (IGROV-1): > 100 µM (inactive)
- GI50 (SF-268): > 100 µM (inactive)
- GI50 (HCC 2998): 67 µM (inactive)
- GI50 (M19-MEL): > 100 µM (inactive)
- GI50 (EKVX): > 100 µM (inactive)
- GI50 (OVCAR-8): > 100 µM (inactive)
- GI50 (Malme-3M): 31.7 µM (inactive)
- GI50 (SNB-78): 5.65 µM (inactive)
- GI50 (SK-OV-3): > 100 µM (inactive)
- GI50 (HCT-116): > 100 µM (inactive)
- GI50 (HOP-62): > 100 µM (inactive)

Structure (SMILES): O=C1c2ccccc2C(=O)c2[nH]c(Cc3ccc(F)cc3)nc21
- GI50 (KM-20L2): 17.1 µM (inactive)
- GI50 (RXF 393): 6.97 µM (inactive)
- GI50 (SW-620): 14.5 µM (inactive)
- GI50 (SR): 21.6 µM (inactive)
- GI50 (M14): 15.3 µM (inactive)
- GI50 (SNB-19): 24.4 µM (inactive)
- GI50 (SK-MEL-28): 18.7 µM (inactive)
- GI50 (RPMI-8226): 22.8 µM (inactive)
- GI50 (NCI-H522): 14.5 µM (inactive)
- GI50 (UO-31): 29.6 µM (inactive)
- GI50 (DMS-114): > 10 µM (inactive)
- GI50 (CAKI-1): 19.7 µM (inactive)
- GI50 (COLO 205): 22.1 µM (inactive)
- GI50 (U-251): 22.6 µM (inactive)
- GI50 (OVCAR-3): 5.4 µM (inactive)
- GI50 (DLD-1): 4.01 µM (inactive)
- GI50 (UACC-257): 16.3 µM (inactive)
- GI50 (TK-10): 34.1 µM (inactive)
- GI50 (SK-MEL-2): 13.9 µM (inactive)
- GI50 (NCI-H23): > 10 µM (inactive)
- GI50 (A549): 19.5 µM (inactive)
- GI50 (SF-539): 17.8 µM (inactive)
- GI50 (HCT-15): 6.44 µM
- GI50 (SF-295): 16.7 µM (inactive)
- GI50 (MOLT-4): 24.8 µM (inactive)
- GI50 (SNB-75): 20.9 µM (inactive)
- GI50 (DMS-273): 18.1 µM (inactive)
- GI50 (KM12): 16.2 µM (inactive)
- GI50 (786-0): 16.9 µM (inactive)
- GI50 (K562): 37.2 µM (inactive)
- GI50 (RXF 631): 15.9 µM (inactive)
- GI50 (HL-60): 17.9 µM (inactive)
- GI50 (OVCAR-4): 14.8 µM (inactive)
- GI50 (NCI-H460): 15.2 µM (inactive)
- GI50 (HOP-92): 19.9 µM (inactive)
- GI50 (SN12C): 22 µM (inactive)
- GI50 (XF498): 17.2 µM (inactive)
- GI50 (ACHN): 14.2 µM (inactive)
- GI50 (NCI-H226): 22.8 µM (inactive)
- GI50 (UACC-62): 15.5 µM (inactive)
- GI50 (CCRF-CEM): 24.6 µM (inactive)
- GI50 (LXFL 529): 26.4 µM (inactive)
- GI50 (HT-29): 15.9 µM (inactive)
- GI50 (IGROV-1): 12.5 µM (inactive)
- GI50 (SF-268): 21.8 µM (inactive)
- GI50 (HCC 2998): 26.2 µM (inactive)
- GI50 (M19-MEL): 16.9 µM (inactive)
- GI50 (EKVX): 19.2 µM (inactive)
- GI50 (OVCAR-8): 17.4 µM (inactive)
- GI50 (Malme-3M): 14.5 µM (inactive)
- GI50 (HCT-116): 19.5 µM (inactive)
- GI50 (HOP-62): 21.9 µM (inactive)
